This is an account of results in ChEMBL document CHEMBL4049386, “Discovery of an Inhibitor of the Proteasome Subunit Rpn11” (J Med Chem, 2017).

For series [1], the target named is 72 kDa type IV collagenase (Homo sapiens, UniProt P08253). Description: Inhibition of recombinant human MMP2 catalytic domain (Tyr110 to Asp452 residues) expressed in yeast using Mca-Pro-Leu-Gly-Leu-Dpa-Ala-Arg-NH2.AcOH as substrate preincubated for 30 mins followed by substrate addition measured every minute for 20 mins by fluorescence assay.
Sequence of 72 kDa type IV collagenase (P08253 whole entry, the tested form may be a part): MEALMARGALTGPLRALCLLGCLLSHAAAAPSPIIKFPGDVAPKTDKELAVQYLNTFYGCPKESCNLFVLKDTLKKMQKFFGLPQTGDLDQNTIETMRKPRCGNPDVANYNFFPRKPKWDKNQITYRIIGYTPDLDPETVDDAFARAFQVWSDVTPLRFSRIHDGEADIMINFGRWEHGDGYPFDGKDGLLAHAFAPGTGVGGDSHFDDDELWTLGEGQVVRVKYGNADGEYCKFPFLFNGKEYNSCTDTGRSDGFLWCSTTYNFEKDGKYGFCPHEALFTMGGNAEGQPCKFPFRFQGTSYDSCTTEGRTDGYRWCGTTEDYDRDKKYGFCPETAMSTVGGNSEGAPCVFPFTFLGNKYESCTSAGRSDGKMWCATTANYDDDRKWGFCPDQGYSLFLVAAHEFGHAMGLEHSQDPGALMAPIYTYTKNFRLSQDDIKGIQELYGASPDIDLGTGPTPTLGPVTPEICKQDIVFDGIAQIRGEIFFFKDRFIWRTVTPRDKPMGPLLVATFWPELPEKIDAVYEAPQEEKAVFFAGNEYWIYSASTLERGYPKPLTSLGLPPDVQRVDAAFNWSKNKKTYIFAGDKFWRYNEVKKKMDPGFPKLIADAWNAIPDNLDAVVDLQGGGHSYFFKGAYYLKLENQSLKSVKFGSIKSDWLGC
In series [2] the target is T1, 26S proteasome non-ATPase regulatory subunit 14 (Homo sapiens, UniProt O00487). Description: Inhibition of 26S proteasome regulatory subunit RPN11 deubiquitinating activity in human erythrocytes using Ub4-pepOG protein substrate preincubated for 1 hr followed by substrate addition measured after 80 mins by fluorescence polarization assay. In general terms: Fluorescence polarisation rises when a labelled molecule tumbles more slowly, as on binding a larger partner.
T1 sequence (O00487 whole entry): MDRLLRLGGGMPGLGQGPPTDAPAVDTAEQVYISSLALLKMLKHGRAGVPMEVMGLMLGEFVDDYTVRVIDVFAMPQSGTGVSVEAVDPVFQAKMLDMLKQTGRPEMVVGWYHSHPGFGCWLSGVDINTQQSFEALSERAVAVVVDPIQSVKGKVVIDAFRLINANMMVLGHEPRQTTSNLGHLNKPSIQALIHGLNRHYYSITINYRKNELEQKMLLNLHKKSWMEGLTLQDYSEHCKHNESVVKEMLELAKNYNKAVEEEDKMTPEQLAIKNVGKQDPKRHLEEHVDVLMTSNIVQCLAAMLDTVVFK

In series [3] the target is T2, Protein deacetylase HDAC6 (Homo sapiens, UniProt Q9UBN7).
T2 sequence (Q9UBN7 whole entry): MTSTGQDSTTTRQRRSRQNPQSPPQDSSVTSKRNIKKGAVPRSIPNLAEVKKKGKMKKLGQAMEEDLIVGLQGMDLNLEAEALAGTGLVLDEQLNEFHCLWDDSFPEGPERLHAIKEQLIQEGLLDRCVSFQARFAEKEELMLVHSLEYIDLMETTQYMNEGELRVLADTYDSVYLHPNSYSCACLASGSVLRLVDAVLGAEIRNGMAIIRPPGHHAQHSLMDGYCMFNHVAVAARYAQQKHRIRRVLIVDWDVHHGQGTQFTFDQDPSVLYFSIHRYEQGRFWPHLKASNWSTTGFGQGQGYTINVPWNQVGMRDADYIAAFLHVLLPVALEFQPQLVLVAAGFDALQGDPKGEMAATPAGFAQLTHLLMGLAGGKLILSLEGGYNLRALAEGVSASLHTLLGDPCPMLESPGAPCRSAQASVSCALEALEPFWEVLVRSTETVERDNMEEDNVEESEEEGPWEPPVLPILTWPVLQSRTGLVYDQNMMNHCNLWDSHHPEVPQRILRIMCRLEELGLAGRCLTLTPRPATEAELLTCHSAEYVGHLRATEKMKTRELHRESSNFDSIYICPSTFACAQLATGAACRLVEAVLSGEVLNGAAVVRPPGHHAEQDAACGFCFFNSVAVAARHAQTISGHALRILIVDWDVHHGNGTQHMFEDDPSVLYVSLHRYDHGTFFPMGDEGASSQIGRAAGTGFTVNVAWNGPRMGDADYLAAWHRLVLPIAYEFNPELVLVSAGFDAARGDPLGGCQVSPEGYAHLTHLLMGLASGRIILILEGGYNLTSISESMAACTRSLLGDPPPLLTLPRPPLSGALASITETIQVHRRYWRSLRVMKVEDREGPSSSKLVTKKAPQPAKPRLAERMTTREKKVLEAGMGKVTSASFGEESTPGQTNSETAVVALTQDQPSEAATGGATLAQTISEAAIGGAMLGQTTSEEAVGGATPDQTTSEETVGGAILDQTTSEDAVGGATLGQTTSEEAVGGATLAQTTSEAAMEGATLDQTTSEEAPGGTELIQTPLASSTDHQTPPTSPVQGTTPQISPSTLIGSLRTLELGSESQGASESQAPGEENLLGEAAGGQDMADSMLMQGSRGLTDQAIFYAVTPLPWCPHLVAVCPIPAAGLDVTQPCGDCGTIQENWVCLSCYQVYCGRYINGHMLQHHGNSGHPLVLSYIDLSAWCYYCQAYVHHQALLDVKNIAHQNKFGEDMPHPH
Description: Inhibition of full length recombinant human N-terminal GST-tagged HDAC6 expressed in baculovirus expression system using substrate 3 preincubated for 5 mins followed by substrate addition measured after 30 mins by fluorescence assay.

The subject of a further series is HCT-116. The series can be described thus: cells. The settings on record: Homo sapiens, HCT-116, 72 h.
For a further series, the target named is Carbonic anhydrase 2 (Homo sapiens, UniProt P00918). Description: Inhibition of human carbonic anhydrase-2 using p-nitrophenylacetate as substrate preincubated for 10 mins followed by substrate addition.
The target of series [4] is T3, Polyunsaturated fatty acid 5-lipoxygenase (Homo sapiens, UniProt P09917).
T3 sequence (P09917 whole entry): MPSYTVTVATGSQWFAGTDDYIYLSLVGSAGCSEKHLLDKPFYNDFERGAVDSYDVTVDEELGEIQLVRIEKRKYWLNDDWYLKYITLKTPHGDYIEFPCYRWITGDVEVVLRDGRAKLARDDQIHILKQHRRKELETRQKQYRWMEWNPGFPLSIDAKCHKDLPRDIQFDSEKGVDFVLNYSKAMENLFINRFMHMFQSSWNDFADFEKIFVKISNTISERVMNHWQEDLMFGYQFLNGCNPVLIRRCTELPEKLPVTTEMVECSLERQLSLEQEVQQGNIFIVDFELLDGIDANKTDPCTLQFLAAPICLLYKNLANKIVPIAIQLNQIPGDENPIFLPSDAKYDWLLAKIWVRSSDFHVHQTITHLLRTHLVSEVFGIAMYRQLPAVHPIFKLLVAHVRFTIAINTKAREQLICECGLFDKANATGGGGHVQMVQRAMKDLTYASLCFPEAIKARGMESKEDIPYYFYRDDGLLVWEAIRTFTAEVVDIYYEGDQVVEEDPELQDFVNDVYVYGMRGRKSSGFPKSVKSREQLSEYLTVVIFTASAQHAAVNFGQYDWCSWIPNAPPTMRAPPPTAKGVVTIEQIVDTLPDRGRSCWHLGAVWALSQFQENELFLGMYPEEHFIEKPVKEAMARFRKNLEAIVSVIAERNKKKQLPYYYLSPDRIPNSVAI
Description: Inhibition of recombinant human 5-LO expressed in baculovirus infected sf9 cells using arachidonic acid as substrate preincubated for 10 mins followed by substrate addition measured every minute for 20 mins by H2DCFDA dye based fluorescence assay.

The target of series [5] is COP9 signalosome complex subunit 5 (Homo sapiens, UniProt Q92905). Description: Inhibition of CSN5 (unknown origin) using SCFskp2-Nedd8OG as substrate after 1 hr by fluorescence polarization assay.
Sequence of COP9 signalosome complex subunit 5 (Q92905 whole entry, one chain of several): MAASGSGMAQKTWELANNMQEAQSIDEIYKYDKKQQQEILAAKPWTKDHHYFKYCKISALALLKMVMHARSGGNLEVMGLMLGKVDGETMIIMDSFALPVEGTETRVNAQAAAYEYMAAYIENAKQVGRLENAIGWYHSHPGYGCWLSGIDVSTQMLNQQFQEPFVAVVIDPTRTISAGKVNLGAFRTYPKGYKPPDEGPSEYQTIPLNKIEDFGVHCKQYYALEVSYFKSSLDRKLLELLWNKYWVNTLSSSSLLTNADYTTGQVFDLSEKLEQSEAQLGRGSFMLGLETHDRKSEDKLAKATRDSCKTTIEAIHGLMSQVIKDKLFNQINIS
For a further series, the target named is Histone deacetylase 1 (Homo sapiens, UniProt Q13547). Description: Inhibition of full length recombinant human C-terminal His/FLAG-tagged HDAC1 expressed in baculovirus expression system using substrate 3 preincubated for 5 mins followed by substrate addition measured after 30 mins by fluorescence assay.
Sequence of Histone deacetylase 1 (Q13547 whole entry): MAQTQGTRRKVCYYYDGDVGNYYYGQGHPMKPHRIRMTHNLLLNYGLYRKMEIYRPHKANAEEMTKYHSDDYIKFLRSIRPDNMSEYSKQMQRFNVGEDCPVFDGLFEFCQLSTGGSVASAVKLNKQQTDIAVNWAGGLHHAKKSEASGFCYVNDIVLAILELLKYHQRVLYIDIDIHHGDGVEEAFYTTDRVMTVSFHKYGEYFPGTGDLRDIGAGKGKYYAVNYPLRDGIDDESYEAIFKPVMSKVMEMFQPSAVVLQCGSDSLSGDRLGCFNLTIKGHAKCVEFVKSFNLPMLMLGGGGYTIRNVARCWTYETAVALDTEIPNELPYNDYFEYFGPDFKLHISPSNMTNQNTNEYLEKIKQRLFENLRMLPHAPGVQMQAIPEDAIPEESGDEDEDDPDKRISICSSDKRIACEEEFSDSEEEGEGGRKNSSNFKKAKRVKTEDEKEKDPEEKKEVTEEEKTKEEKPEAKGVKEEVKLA
The nature of series [6]: Aqueous solubility of the compound. To be noted: buffer. The format is physicochemical.
The target in the next series is T4, STAM-binding protein (Homo sapiens, UniProt O95630).
T4 sequence (O95630 whole entry): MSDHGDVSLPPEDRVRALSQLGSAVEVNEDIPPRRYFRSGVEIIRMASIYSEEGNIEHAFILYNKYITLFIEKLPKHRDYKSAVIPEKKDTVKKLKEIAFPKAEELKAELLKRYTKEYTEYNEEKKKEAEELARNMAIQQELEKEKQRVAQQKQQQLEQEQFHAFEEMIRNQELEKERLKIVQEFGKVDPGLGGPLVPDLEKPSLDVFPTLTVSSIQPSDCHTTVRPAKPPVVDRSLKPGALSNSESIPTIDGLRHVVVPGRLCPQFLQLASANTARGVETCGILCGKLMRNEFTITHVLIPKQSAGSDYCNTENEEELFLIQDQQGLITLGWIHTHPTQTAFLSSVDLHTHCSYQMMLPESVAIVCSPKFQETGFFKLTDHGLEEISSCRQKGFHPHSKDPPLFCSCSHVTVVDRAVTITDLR
Description: Inhibition of AMSH (unknown origin) using DiUbK63TAMRA as substrate by fluorescence assay.

The test system of the next series is HEK-293T. Description: Antiproliferative activity against human 293T cells after 72 hrs by Cell Titer-Glo assay. The format is functional, cell-based.
The test system of the next series is A549. Description: Antiproliferative activity against human A549 cells after 72 hrs by Cell Titer-Glo assay. It counts as functional, cell-based. To be noted: A549, 72 h. Background: Cellular ATP, detected with luciferase, serves as a proxy for viable cell number.
In series [7] the target is Lys-63-specific deubiquitinase BRCC36 (Homo sapiens) (UniProt P46736). The series can be described thus: Inhibition of BRCC36 (unknown origin) using DiUbK63TAMRA as substrate by fluorescence assay.
Sequence of Lys-63-specific deubiquitinase BRCC36 (Homo sapiens) (P46736 whole entry): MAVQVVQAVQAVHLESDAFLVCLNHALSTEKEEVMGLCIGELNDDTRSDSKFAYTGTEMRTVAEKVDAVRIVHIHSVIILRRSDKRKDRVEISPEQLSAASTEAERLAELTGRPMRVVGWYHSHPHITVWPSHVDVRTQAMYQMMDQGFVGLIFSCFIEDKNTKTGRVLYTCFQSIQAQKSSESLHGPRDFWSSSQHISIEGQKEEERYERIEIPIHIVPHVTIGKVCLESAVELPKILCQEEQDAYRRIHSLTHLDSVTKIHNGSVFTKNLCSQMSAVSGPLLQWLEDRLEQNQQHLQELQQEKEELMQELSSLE
The target in series [8] is T1, 26S proteasome non-ATPase regulatory subunit 14. To be noted: 200 uM.
Description: Inhibition of 26S proteasome regulatory subunit RPN11 deubiquitinating activity in human erythrocytes at 200 uM using Ub4-pepOG protein substrate preincubated for 1 hr followed by substrate addition measured after 80 mins by fluorescence polarization assay relative to control

Active and inactive are the calls of the source. The rule behind the calls is not given here.

Description for HCT-116: Antiproliferative activity against human HCT116 cells after 72 hrs by Cell Titer-Glo assay

On to `Cc1ccc(S)c2ncccc12`, for which the concentration for half-maximal inhibition (IC50) (usually the concentration that gives 50% inhibition) in [1] was above 200 µM; in series [2], 2.5 µM; in [3], above 200 µM; with HCT-116 it was 3.4 µM; at Carbonic anhydrase 2, above 200 µM; in series [4], above 200 µM. The 50% inhibitory concentration (IC50) is 2.9 µM in series [5] and above 200 µM at Histone deacetylase 1.

Take `Cc1cc(S)c2ncccc2c1`: the IC50 in series [1] is above 200 µM; in series [2] it was 0.9 µM; in series [3], above 50 µM; against Carbonic anhydrase 2, above 100 µM; in [4], above 200 µM; on Histone deacetylase 1 it was above 50 µM.

Consider `Cc1cnc2c(S)cccc2c1`, for which the IC50 in series [1] was above 200 µM; in series [2], 1.6 µM; in series [3] it was above 200 µM; in the series with HCT-116, 2.6 µM; at Carbonic anhydrase 2, above 40 µM; in series [4], above 200 µM. The values for the half-maximal inhibitory concentration (IC50) (in series [5]; on Histone deacetylase 1) were 7.1 µM and above 50 µM, respectively.

As to `O=C(Nc1nccs1)c1cnc2c(SSc3cccc4cc(C(=O)Nc5nccs5)cnc34)cccc2c1`, the solubility result in series [6] is “Soluble”. Moreover, the 50% inhibitory concentration (IC50) at STAM-binding protein was found to be 4.7 µM; in series [5], 20 µM; with HEK-293T it was 6.4 µM; with A549, 5.8 µM.

As to `Cc1ccnc2c(S)cccc12`, the IC50 in series [1] was above 200 µM; in series [2], 5.7 µM; in [3], above 200 µM; in the series with HCT-116, above 10 µM; on Carbonic anhydrase 2 it was above 200 µM; in [4] it was above 200 µM. The half-inhibitory concentration (IC50) in series [5] was 25.1 µM; at Histone deacetylase 1 it was above 200 µM.

Regarding `CC(C)C[C@H](NC(=O)[C@H](Cc1ccccc1)NC(=O)c1cnccn1)B(O)O` [BORTEZOMIB], the half-maximal inhibitory concentration (IC50) is 0.012 µM in the series on HEK-293T and 0.092 µM with A549.

Take `O=C(NCCc1nccs1)c1cnc2c(SSc3cccc4cc(C(=O)NCCc5nccs5)cnc34)cccc2c1`: the solubility entry in series [6] is “Soluble”. Also, the IC50 is 2.1 µM in the series with HEK-293T and 3.8 µM with A549.

As for `Sc1cccc2cccnc12`, the inhibition (usually how much of the control response was suppressed) in [7] is “Active”. The concentration for half-maximal inhibition (IC50) is above 200 µM in series [1]; 2.5 to 2.8 µM in series [2]; above 200 µM in series [3]; 1.6 µM in the series on HCT-116; above 200 µM against Carbonic anhydrase 2; above 200 µM in [4]. The IC50 in [5] is 10.3 µM; at Histone deacetylase 1 it was above 200 µM. The molecule also came in with an inhibition in series [8] of 100%.
